Values after ≈ are worked out from the molar mass of the structure shown. Where two headings read alike, the source gives them in different places.
Tests used:
[1] = Metal chelation, spectrophotometric (Ni2+); assay type: physicochemical
Description: (§1) The chelating activities of Ajuga reptans extracts in relation to Fe^2+, Fe^3+, Cu^2+ and Ni^2+ metal ions has been determined by means of spectrophotometric measurements using a Shimadzu 1770 UV spectrophotometer. The activities of chelating agents depends on the association constant (equilibrium) of their reactions with the metals according to the following reaction:
(§2) [formula] wherein Keq is the equilibrium constant equal to the ratio of concentrations at equilibrium of a complex and a product of equilibrium concentrations of metal ions and a chelator:
(§3) The method used for determining chelating activities is well documented in the literature (Korkina L G, Afarras'er I B. Antioxidant and chelating properties of flavonoids. Adv. Pharmacol., 1997, 38:151-63). The results are expressed as Keq (M^−1) calculated for a pure phenylpropanoid. This way the chelating activity against ferrous (Fe II), ferric (Fe III), copper (Cu II) and nickel ions has been calculated.

[2] = Metal chelation, spectrophotometric (Cu2+); assay type: physicochemical
Description: as §1, §2, §3

[3] = system: Pseudomonas aeruginosa ATCC 9027; test: Multiple dilution assay, growth in culture broth; assay type: cell-based; conditions: for T0 (CFU/ml) / T7d (CFU/ml) / T14d (CFU/ml) / T21d (CFU/ml) / T28d (CFU/ml): 30° C.; for T7d (CFU/ml): 7 days; for T14d (CFU/ml): 14 days; for T21d (CFU/ml): 21 days; for T28d (CFU/ml): 28 days
Protocol: (§4) To the purpose of detecting any antimicrobial activity of the Ajuga reptans extract and the individual phenylpropanoid isoteupoloside (FPD) and teupolioside (FPA), an assay has been prepared, generally known as multiple dilution assay, with the following microbial strains: Pseudomonas aeruginosa ATCC 9027; Candida albicans ATCC 2091. The phenylpropanoids FPD, FPA and the Extract 2 of Ajuga reptans were assayed at the concentrations of 0.5 mg/ml, 2 mg/ml and 5 mg/ml. The microbial strains for the test were inoculated in culture broths (in Triptone soy broth medium) containing the substances to be assayed at the concentrations described above. In parallel with these tests, culture broths containing the microbial strain alone have been prepared (controls). The culture-broths have been incubated at 30° C. for a period of 28 days. […] A certain number of serial dilutions have been prepared for each sample in order to determine the microbial load of each culture-broth. Each dilution has been assayed in triplicate on solid medium. Then number of CFUs reported in the table is the mean of the counts performed on the triplicate assays.

[4] = system: Candida albicans ATCC 2091; test: Multiple dilution assay, growth in culture broth; assay type: cell-based; conditions: for T0 (CFU/ml) / T7d (CFU/ml) / T14d (CFU/ml) / T21d (CFU/ml) / T28d (CFU/ml): 30° C.; for T7d (CFU/ml): 7 days; for T14d (CFU/ml): 14 days; for T21d (CFU/ml): 21 days; for T28d (CFU/ml): 28 days
Protocol: as §4

white blood cells = test: Luminol dependent chemiluminescence of PMA-stimulated white blood cells; assay type: cell-based; conditions: Homo sapiens, 0.5 h, read-out: White blood cell chemiluminescence (IC50 mg/ml)
Protocol: (§5) Anti-inflammatory activity has been assessed by measuring luminol dependent chemiluminescence generated by free radicals released from whole blood and from white blood cells. The assay has been performed using the following protocol: 10 μl of fresh human blood is mixed with 0.980 ml of Hanks saline solution containing 5×10^−5 M luminol and the test sample (at various concentrations). The chemiluminescent response is recorded continuously for 30 minutes at a temperature of 37° C. The results are expressed as IC50 (mg/ml), i.e. as the minimum sample concentration inhibiting chemiluminescence by 50% with respect to the control. To isolate white blood cells (WBC) from whole blood one proceeds in the following manner: 1 ml of fresh blood is layered onto a Hipaque gradient (p=1.119) and centrifuged at 250×g for 60 minutes at room temperature. Following centrifugation, the pellet containing the white blood cells is washed twice, using a large volume of cold Hanks saline solution. Finally, the washed WBCs are resuspended in 0.1 ml di HBSS containing foetal calf serum. 10^6 WBC are added to a chemiluminometer cuvette. 10 μl of PMA (final concentration equal to 10 nM) are added to induce the formation of free radicals. The chemiluminescent response is recorded continuously for 30 minutes at a temperature of 37° C. […]

whole blood = test: Luminol dependent chemiluminescence of whole blood; assay type: cell-based, human; conditions: 0.5 h, read-out: Whole blood chemiluminescence (IC50 mg/ml)
Protocol: as §5

tyrosinase = test: Tyrosinase inhibition, conversion of L-DOPA to DOPAquinone; assay type: biochemical; conditions: 100 μg/ml
Description: The enzyme tyrosinase catalyses the reactions leading to melanin biosynthesis from tyrosine. […] Substances inhibiting tyrosinase activity produce a clearing/bleaching effect on the skin, since they block melanin synthesis. The method used to determine the inhibition of tyrosinase activity in the oxidation reaction of L-tyrosine to L-DOPA is that described in Kim et al. […] Biol. Pharm. […] The method applied for determination of the inhibition of tyrosinase activity in the conversion of L-DOPA to DOPAquinone is that described in Masamoto et al. (Mushroom tyrosinase inhibitory activity of esculetin isolated from seeds of Euphorbia lathyris L. Biosci. Biotechnol. Biochem., 67(3), 631-634, 2003).

[5] = calculated for a pure phenylpropanoid

## C[C@@H]1O[C@@H](O[C@@H]2[C@@H](O)[C@H](OCCc3ccc(O)c(O)c3)O[C@H](CO)[C@H]2OC(=O)/C=C/c2ccc(O)c(O)c2)[C@H](O[C@@H]2O[C@H](CO)[C@H](O)[C@H](O)[C@H]2O)[C@H](O)[C@H]1O [Teupolioside, teupolioside]
[1]; [5]
  Ni^2+ (Keq, M^−1): 2658 ± 365 M⁻¹
[2]; [5]
  Cu^2+ (Keq, M^−1): 80000 ± 30000 M⁻¹
[3]
  Anti-microbial activity on Pseudomonas aeruginosa ATCC 9027, comparison in words: activity similar to isoteupolioside
[3]; 5 mg/ml
  Inhibiting action on the growth of Pseudomonas aeruginosa ATCC 9027, in words: significant inhibiting action
[4]
  Anti-microbial activity on Candida albicans ATCC 2091, comparison in words: activity similar to isoteupolioside
[4]; 5 mg/ml
  Inhibiting action on the growth of Candida albicans ATCC 2091, in words: significant inhibiting action
White blood cells; 10^6 WBC, PMA 10 nM, 30 min, 37° C.
  IC50: 0.5 mg/mL (≈ 636 µM)
Whole blood; fresh human blood, luminol, 30 min, 37° C.
  IC50: 1.4 mg/mL (≈ 1780 µM)
tyrosinase
  Test LDOPA-DOPAquinone inhibitory activity (%): 21%

## CC1OC(OC2C(O)C(COC(=O)C=Cc3ccc(O)c(O)c3)OC(OCCc3ccc(O)c(O)c3)C2O)C(OC2OC(CO)C(O)C(O)C2O)C(O)C1O (stereo not drawn) [Isoteupolioside, isoteupolioside]
[1]
  Ni^2+ (Keq, M^−1): 2631 ± 373 M⁻¹
[2]
  Cu^2+ (Keq, M^−1): 70000 ± 20000 M⁻¹
[3]; 0.5 mg/ml
  T0 (CFU/ml): 9.6 × 10^5 CFU/ml
  T7d (CFU/ml): 1.2 × 10^6 CFU/ml
  T14d (CFU/ml): 2.1 × 10^7 CFU/ml
  T21d (CFU/ml): 2.4 × 10^4 CFU/ml
  T28d (CFU/ml): 9.8 × 10^3 CFU/ml
[3]; 2 mg/ml
  T0 (CFU/ml): 5.9 × 10^5 CFU/ml
  T7d (CFU/ml): 1.1 × 10^6 CFU/ml
  T14d (CFU/ml): 1.9 × 10^6 CFU/ml
  T21d (CFU/ml): 9.2 × 10^3 CFU/ml
  T28d (CFU/ml): 9.8 × 10^3 CFU/ml
[3]; 5 mg/ml
  Inhibiting action on the growth of Pseudomonas aeruginosa ATCC 9027, in words: significant inhibiting action
  T0 (CFU/ml): 3.6 × 10^5 CFU/ml
  T7d (CFU/ml): 9.8 × 10^5 CFU/ml
  T14d (CFU/ml): 1.1 × 10^5 CFU/ml
  T21d (CFU/ml): 2.5 × 10^3 CFU/ml
  T28d (CFU/ml): 9 × 10^1 CFU/ml
[4]; 0.5 mg/ml
  T0 (CFU/ml): 9.7 × 10^5 CFU/ml
  T7d (CFU/ml): 1.7 × 10^6 CFU/ml
  T14d (CFU/ml): 5.8 × 10^5 CFU/ml
  T21d (CFU/ml): 7.3 × 10^7 CFU/ml
  T28d (CFU/ml): 6.5 × 10^7 CFU/ml
[4]; 2 mg/ml
  T0 (CFU/ml): 9.1 × 10^5 CFU/ml
  T7d (CFU/ml): 1.1 × 10^6 CFU/ml
  T14d (CFU/ml): 2.3 × 10^6 CFU/ml
  T21d (CFU/ml): 1.2 × 10^5 CFU/ml
  T28d (CFU/ml): 3.8 × 10^3 CFU/ml
[4]; 5 mg/ml
  Inhibiting action on the growth of Candida albicans ATCC 2091, in words: significant inhibiting action
  T0 (CFU/ml): 8.1 × 10^5 CFU/ml
  T7d (CFU/ml): 3.1 × 10^5 CFU/ml
  T14d (CFU/ml): 8.5 × 10^3 CFU/ml
  T21d (CFU/ml): 5 × 10^1 CFU/ml
White blood cells
  IC50: 0.4 mg/mL (≈ 508 µM)
Whole blood; Homo sapiens
  IC50: 1.3 mg/mL (≈ 1650 µM)
tyrosinase
  Test LDOPA-DOPAquinone inhibitory activity (%): 20%
